Measurements published in ChEMBL document CHEMBL1201862, “PubChem BioAssay data set” (2004).
Activity calls are given as the source filed them.

Experiments:
Cytochrome P450 2C9 = Cytochrome P450 2C9 (Homo sapiens, UniProt P11712)
Leucine aminopeptidase = target: T1, Leucine aminopeptidase (Plasmodium falciparum 3D7, UniProt Q8IL11); assay: P. falciparum M17LAP inhibitors, primary screen, biochemical, fluorogenic H-Leu-NHMec substrate, 1536-well (AID 1619); type: functional
T1 sequence (Q8IL11 whole entry): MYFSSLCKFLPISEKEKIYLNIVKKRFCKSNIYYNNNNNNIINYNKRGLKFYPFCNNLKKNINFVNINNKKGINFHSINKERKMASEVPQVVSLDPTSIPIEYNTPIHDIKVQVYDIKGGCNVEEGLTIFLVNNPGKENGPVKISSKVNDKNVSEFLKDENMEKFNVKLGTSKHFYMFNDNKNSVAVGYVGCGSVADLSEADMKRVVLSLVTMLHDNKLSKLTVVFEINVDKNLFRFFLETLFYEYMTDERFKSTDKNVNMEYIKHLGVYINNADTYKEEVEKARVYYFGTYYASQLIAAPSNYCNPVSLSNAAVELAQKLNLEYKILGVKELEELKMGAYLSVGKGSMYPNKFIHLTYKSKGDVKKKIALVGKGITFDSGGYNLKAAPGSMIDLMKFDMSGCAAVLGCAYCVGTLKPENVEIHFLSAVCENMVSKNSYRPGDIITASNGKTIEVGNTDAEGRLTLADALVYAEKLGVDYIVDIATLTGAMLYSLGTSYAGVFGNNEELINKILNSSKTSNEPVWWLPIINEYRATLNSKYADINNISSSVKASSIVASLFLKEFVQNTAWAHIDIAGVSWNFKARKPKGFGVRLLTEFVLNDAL

Vero = assay: cells; type: functional; settings: Chlorocebus sabaeus
Cytochrome P450 2D6 = Cytochrome P450 2D6 (Homo sapiens, UniProt P10635);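 note: CYP2D6 member of a cytochrome P450 panel assay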
Chain of Cytochrome P450 2D6 (P10635 whole entry): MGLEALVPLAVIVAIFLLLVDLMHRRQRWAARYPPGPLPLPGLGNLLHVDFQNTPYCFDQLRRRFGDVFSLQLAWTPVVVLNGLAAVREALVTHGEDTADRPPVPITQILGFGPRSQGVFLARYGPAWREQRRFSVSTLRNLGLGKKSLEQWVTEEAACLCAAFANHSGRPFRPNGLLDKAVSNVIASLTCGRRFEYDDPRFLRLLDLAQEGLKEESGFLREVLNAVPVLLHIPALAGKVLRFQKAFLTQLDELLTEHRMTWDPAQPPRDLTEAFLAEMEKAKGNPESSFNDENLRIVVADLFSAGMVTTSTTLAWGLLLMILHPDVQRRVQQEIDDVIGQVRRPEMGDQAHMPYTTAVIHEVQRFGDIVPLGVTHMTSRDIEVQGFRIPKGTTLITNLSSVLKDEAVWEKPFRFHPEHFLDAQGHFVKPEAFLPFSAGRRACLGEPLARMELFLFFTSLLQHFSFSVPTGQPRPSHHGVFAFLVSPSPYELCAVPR

H4 = assay: Luminescence Cell-Based Dose Response HTS to Identify Activators of 5'UTR Stem-Loop Driven Prion Protein mRNA Translation in H4 Neuroglioblastoma Cells. [Related pubchem assays: 1829 (Project Summary), 1814 (Primary HTS)]; type: functional; settings: Homo sapiens
[1] = test system: Streptococcus sp. 'group A'; assay: Streptococcus pyogenes SK(-)GAS viability under kanamycin – luminescence, BacTiterGlo, confirmation, counter-screen for streptokinase expression inhibitor project, dose response (AID 1900); type: functional, organism-based
[2] = Luminescence Cell-Based Dose Confirmation HTS to Identify Activators of 5'UTR Stem-Loop Driven Alpha-Synuclein mRNA Translation in H4 Neuroglioblastoma Cells. [Related pubchem assays: 1829 (Project Summary), 1814 (Primary HTS)]; type: functional
Streptococcus = assay: GAS UMAA2166 growth inhibition – luminescence, BacTiterGlo, counter-screen for streptokinase expression inhibitor project, dose response (AID 1915); type: functional, organism-based;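 note: potency for reduction of bacterial viability or growth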
Streptokinase A = target: T2, Streptokinase A (Streptococcus pyogenes serotype M1, UniProt P10520); assay: viability-normalized secreted streptokinase activity reduction – plasminogen activation absorbance, OD405, dose response (AID 1914); type: functional, Streptococcus pyogenes M1 GAS;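 note: secreted streptokinase activity via plasminogen activation per viability signal from cell pellet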
T2 sequence (P10520 whole entry): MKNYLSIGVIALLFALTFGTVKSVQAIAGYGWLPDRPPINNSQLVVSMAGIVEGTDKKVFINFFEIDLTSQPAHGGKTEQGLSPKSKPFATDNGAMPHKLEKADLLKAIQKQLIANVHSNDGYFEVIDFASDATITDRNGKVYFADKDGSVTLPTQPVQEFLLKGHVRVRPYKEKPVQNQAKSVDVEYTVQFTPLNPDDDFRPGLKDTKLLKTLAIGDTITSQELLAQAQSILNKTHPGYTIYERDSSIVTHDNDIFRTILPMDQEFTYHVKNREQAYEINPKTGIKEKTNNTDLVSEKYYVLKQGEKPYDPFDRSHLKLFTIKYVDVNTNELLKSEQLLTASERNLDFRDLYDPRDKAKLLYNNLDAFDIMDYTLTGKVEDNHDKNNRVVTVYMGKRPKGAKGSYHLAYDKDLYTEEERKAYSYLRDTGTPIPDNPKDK

[3] = Luminescence Cell-Based Dose Response HTS to Identify Activators of Luciferase Translation or Activity in H4 […] Cells. [Related pubchem assays: 1829 (Project Summary), 1814 (Primary HTS)]; type: functional
Cytochrome P450 1A2 = target: T3, Cytochrome P450 1A2 (Homo sapiens, UniProt P05177);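 note: PubChem cytochrome P450 panel assay, CYP1A2 panel member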
T3 sequence (P05177 whole entry): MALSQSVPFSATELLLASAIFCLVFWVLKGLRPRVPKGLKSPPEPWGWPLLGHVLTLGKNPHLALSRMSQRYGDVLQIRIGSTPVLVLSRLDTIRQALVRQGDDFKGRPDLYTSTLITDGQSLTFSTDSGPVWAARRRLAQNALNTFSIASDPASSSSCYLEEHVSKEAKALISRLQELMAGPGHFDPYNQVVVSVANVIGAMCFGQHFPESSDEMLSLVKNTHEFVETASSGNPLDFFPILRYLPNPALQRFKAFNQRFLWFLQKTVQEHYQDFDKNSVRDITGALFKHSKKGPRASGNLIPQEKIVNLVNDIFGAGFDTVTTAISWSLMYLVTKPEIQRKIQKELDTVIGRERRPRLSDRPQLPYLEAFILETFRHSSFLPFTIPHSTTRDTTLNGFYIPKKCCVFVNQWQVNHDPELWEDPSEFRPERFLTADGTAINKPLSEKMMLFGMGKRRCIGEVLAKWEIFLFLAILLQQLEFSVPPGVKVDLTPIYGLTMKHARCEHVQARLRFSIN

Cytochrome P450 3A4 = Cytochrome P450 3A4 (Homo sapiens, UniProt P08684);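 note: CYP3A4 tested as one member of a cytochrome P450 panel screen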
Chain of Cytochrome P450 3A4 (P08684 whole entry): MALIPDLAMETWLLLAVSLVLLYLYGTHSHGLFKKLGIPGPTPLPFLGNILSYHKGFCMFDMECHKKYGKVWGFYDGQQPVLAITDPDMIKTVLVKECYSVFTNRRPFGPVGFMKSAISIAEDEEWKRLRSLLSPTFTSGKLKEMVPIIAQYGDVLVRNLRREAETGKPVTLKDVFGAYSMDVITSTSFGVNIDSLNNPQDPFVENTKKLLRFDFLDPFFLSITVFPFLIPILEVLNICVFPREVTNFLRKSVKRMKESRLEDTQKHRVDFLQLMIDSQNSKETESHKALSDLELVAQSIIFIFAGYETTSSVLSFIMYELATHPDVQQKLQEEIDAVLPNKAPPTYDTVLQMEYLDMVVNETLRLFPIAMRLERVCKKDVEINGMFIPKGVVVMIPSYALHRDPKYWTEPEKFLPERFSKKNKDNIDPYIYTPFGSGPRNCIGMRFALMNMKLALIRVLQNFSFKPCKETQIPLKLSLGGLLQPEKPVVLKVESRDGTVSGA

[4] = NIH3T3 cell viability loss – ATP luminescence, mouse fibroblasts, counter-screen, dose response (AID 2010); type: functional, cell-based;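 note: cells exposed to compound for about 90 hours before reading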
[5] = Trypanosoma cruzi growth suppression in host cells – NIH3T3 host cells, beta-gal luminescence, confirmation (AID 2044); type: functional, cell-based;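 note: intracellular parasites grown in NIH/3T3 mouse fibroblasts as host cells; luminescent beta-galactosidase reporter signal from transgenic T. cruzi replicating inside host cells; inhibitors lower the luminescence signal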
Cytochrome P450 2C19 = Cytochrome P450 2C19 (Homo sapiens, UniProt P33261); assay: Cytochrome panel assay with activity outcomes. Panel member name: p450-cyp2c19 Compounds with AC50 equal or less than 10 uM are considered active; type: functional; settings: read-out: AC50
Chain of Cytochrome P450 2C19 (P33261 whole entry): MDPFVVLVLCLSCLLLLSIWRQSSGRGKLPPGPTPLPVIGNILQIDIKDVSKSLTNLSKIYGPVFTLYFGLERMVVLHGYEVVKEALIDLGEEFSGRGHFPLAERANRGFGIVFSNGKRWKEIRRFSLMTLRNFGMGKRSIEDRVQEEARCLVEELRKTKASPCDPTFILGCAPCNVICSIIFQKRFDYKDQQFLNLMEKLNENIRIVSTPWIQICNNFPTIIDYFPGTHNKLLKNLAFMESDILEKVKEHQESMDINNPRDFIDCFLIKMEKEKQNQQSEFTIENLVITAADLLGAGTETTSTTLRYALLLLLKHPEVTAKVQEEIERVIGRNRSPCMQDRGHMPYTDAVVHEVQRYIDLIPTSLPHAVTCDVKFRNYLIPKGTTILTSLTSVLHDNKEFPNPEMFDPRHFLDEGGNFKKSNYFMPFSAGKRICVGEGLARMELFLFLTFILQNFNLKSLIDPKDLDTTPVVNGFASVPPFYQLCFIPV

[6] = viability of uninfected HEp-2 cells – cell-based, HTS, cytotoxicity control for RSV inhibitor project, dose response (AID 2410); type: functional; settings: human respiratory syncytial virus
[7] = target: T4, Heat shock factor protein 1 (Mus musculus, UniProt P38532); assay: enhancement of HSF1-driven luciferase signal – cell-based, NIH3T3, luminescence, dose retest, confirmation (AID 435004); type: functional;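 note: stress induced by proteasome inhibitor MG132 added 30 min after compound; luciferase reporter driven by HSF1 response element in NIH3T3 cells; actives raise luminescence as potentiators of the MG132 stress response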
T4 sequence (P38532 whole entry): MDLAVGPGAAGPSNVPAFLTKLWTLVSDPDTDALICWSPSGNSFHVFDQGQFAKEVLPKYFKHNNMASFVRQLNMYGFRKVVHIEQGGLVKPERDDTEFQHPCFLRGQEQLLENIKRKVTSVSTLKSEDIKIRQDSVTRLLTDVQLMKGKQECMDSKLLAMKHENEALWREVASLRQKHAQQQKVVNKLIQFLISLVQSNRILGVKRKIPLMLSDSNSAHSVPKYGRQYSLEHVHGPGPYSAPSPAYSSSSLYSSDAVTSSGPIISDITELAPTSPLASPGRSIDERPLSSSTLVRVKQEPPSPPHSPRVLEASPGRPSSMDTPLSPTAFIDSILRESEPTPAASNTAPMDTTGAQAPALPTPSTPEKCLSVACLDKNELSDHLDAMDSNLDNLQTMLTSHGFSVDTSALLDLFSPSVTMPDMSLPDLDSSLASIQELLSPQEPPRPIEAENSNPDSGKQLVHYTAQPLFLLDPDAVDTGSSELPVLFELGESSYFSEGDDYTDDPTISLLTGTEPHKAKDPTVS

[8] = Luminescence Cell-Based Dose Retest to Confirm Inhibitors of Cancer Stem Cells. [Related pubchem assays (depositor defined):AID2717, AID2721]; type: functional, Homo sapiens; settings: Homo sapiens

Chain of Cytochrome P450 2C9 (P11712 whole entry): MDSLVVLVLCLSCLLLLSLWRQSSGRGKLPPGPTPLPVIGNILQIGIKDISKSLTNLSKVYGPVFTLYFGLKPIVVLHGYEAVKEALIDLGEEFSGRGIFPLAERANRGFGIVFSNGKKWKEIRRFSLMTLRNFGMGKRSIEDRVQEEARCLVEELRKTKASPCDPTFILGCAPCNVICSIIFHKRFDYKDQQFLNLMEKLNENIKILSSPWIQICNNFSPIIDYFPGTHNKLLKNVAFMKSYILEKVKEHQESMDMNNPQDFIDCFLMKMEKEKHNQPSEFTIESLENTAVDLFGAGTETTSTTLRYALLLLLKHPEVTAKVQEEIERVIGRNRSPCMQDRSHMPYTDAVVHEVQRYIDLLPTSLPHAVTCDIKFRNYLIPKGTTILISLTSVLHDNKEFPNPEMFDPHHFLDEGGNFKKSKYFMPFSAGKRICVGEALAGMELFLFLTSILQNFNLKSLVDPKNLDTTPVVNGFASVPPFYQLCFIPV

O=C(O)/C=C\c1ccc(O)c(O)c1
AC50 (Cytochrome P450 2C9): 15.8 µM (inconclusive)

O=C(COc1ccccc1)NNC(=S)NC(=O)c1ccccc1
IC50 (Leucine aminopeptidase): 9.22 µM (active) | CC50 (Vero): > 25 µM (active)

O=C(NCCN1CCN(Cc2ccccc2)CC1)C1CC(=O)N(C2CCCC2)C1 (stereo unspecified)
AC50 (Cytochrome P450 2C9): 0.398 µM (inconclusive) | AC50 (Cytochrome P450 2D6): 14.1 µM (inconclusive)

CCc1nc(SCC(=O)N2CCCc3ccccc32)c2oc3ccccc3c2n1
AC50 (Cytochrome P450 2C9): 4.47 µM (inconclusive) | AC50 (Cytochrome P450 2D6): 20 µM (inconclusive)

O=C1N(c2ccccc2C(F)(F)F)O[C@@]1(c1ccccc1)C1CCCC1
CC50 (Vero): 21.6 µM (active)

O=C(Nc1nnc(C2CCCCC2)s1)c1ccc(Br)s1
EC50 (H4): 81.8 µM (active) | EC50 [1]: 6.45 µM (active) | EC50 [2]: 11.6 µM (active) | EC50 (Streptococcus): > 150 µM (not active) | EC50 (Streptokinase A): > 150 µM (not active) | EC50 [3]: 65.3 µM (active)

O=C(CCCn1c(=S)[nH]c2cc3c(cc2c1=O)OCO3)N1CCN(c2ccccc2)CC1
AC50 (Cytochrome P450 2C9): 0.0891 µM (inconclusive) | AC50 (Cytochrome P450 1A2): 4.47 µM (inconclusive) | AC50 (Cytochrome P450 2D6): 1.26 µM (inconclusive)

C=C(C(=O)c1ccccc1)C(c1ccccc1)C(C)C(=O)c1ccccc1 (stereo unspecified)
CC50 (Vero): 17.8 µM (active)

CCOC(=O)c1cnc(-n2nc(C)cc2C)nc1NCCO
AC50 (Cytochrome P450 2C9): 20 µM (inconclusive) | AC50 (Cytochrome P450 1A2): 14.1 µM (inconclusive) | AC50 (Cytochrome P450 3A4): 25.1 µM (inconclusive)

Cc1ccc2[nH]c(C3CCCN(C(S)=Nc4ccccc4C)C3)nc2c1 (stereo unspecified)
AC50 (Cytochrome P450 2C9): 3.16 µM (inconclusive) | EC50 [4]: > 60 µM (not active) | EC50 [5]: 0.443 µM (active) | AC50 (Cytochrome P450 2C19): 1.41 µM (inconclusive)

COC(=O)c1[nH]c2cc(OC)ccc2c1NC(=O)c1nonc1C
AC50 (Cytochrome P450 2C9): 1.26 µM (inconclusive) | AC50 (Cytochrome P450 1A2): 0.794 µM (inconclusive) | AC50 (Cytochrome P450 3A4): 7.08 µM (inconclusive)

COc1ccc(C(=O)N/N=C2/C(=O)c3c(C)cc(C)cc3CC2(C)C)cc1
AC50 (Cytochrome P450 2C9): 6.31 µM (inconclusive) | AC50 (Cytochrome P450 1A2): 5.01 µM (inconclusive)

Cc1cccc(C)c1NC(=O)CSc1nc(C)c(CC(=O)c2ccc(Br)cc2)c(C)c1C#N
AC50 (Cytochrome P450 2C9): 1.12 µM (inconclusive) | AC50 (Cytochrome P450 2C19): 35.5 µM (inconclusive)

COc1ccc(C(=O)/C=C/c2ccc(OC)c(Cn3nnc4ccccc43)c2)cc1
CC50 [6]: 12.1 µM (active) | CC50 (Vero): 15.2 µM (active) | EC50 [7]: 14.1 µM (active) | AC50 [8]: 6.14 µM (active)
